Results published in publication PMC9912108, “The actin bundling activity of ITPKA mainly accounts for its migration-promoting effect in lung cancer cells” (Bioscience Reports, 2023).

Key:
[1] = target: T1, ITPKA (Ins(1,4,5)P3-kinase-A) (Homo sapiens, UniProt P23677); assay: coupled optical InsP3-kinase assay (pyruvate kinase/lactate dehydrogenase, NADH) with […] recombinant ITPKA; type: biochemical
T1 construct: expressed in bacteria as GFP-His-fusion protein, tags cleaved with TEV protease

[2] = target: F-actin (filamentous actin) (chicken) (UniProt P68139); assay: co-sedimentation; F-actin bundling assay: G-actin in F-actin buffer (20 mM Tris-HCl pH 7.5, 100 mM KCl, 2 mM MgCl2, 1 mM EGTA, 1 mM DTT, 0.5 mM ATP) with or without ITPKA proteins, 20 min at RT, 10,000 g for 20 min at 4°C; about 1 µM F-actin, 0.5 µM ITPKA, 10-fold excess of ITPKA^L34P; supernatant and pellet on Coomassie-stained SDS-PAGE

Ins(1,4,5)P3-kinase-A (ITPKA), wild type, sequence (P23677 whole entry): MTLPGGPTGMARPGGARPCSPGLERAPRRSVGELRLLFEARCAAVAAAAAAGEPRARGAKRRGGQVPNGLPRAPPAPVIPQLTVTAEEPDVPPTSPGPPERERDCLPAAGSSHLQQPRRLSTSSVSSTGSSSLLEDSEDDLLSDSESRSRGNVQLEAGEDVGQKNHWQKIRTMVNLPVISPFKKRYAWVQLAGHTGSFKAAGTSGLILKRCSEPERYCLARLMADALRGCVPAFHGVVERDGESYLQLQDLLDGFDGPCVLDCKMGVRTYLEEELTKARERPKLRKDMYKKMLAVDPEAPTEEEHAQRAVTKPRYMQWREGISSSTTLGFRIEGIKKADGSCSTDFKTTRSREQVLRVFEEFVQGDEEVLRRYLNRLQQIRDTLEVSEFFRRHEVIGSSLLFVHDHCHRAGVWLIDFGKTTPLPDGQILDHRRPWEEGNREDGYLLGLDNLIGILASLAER
T1 sequence (P23677 whole entry, the tested form may be a part): as the sequence (P23677 whole entry) above

Molecule | IC50 [1] [µM] | percent of F-actin bundled [2] [%]
C[C@@H]1CN(Cc2cn[nH]c2-c2ccc(C#N)cc2)CCN1c1ccc(C(F)(F)F)cn1 [GNF362] | 0.017 | –
Ins(1,4,5)P3-kinase-A (ITPKA), wild type (from UniProt P23677 1-461) (enzyme) | – | 60
